In PubChem BioAssay AID256 (DTP/NCI, 2004) one finds T/C data, which are given here for 25 molecules.

Where “and” joins values, the source holds several entries; their conditions need not be identical. Equal entries are not always repeated. Toxic doses and inconclusive results are not listed.

For the assay, the system named is CD2F1 mice, L1210 leukemia ip, survival T/C. Kind of assay: NCI In Vivo Anticancer Drug Screen. Data for tumor model L1210 Leukemia (intraperitoneal) in CD2F1 (CDF1) mice. The note with it: endpoint: mean survival time, higher = longer survival. The gist of the method:
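Activity against a transplanted murine tumor was judged by comparing the compound group with a vehicle group. The outcome in the treated animals was divided by that in the controls.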

The mark [1] stands for this setting: dose: 100.0 mg/kg/injection, schedule: Q01DX001 (ip), vehicle: saline.
[2] abbreviates: dose: 200.0 mg/kg/injection, schedule: Q01DX001 (ip), vehicle: saline.
The mark [3] stands for this setting: dose: 400.0 mg/kg/injection, schedule: Q01DX001 (ip), vehicle: saline.
[4] abbreviates: dose: 100.0 mg/kg/injection, schedule: Q01DX009 (ip), vehicle: saline with Tween-80.
The mark [5] stands for this setting: dose: 200.0 mg/kg/injection, schedule: Q01DX009 (ip), vehicle: saline with Tween-80.
Where [6] appears, read: dose: 400.0 mg/kg/injection, schedule: Q01DX009 (ip), vehicle: saline with Tween-80.
The mark [7] stands for this setting: dose: 100.0 mg/kg/injection, schedule: Q04DX003 (ip), vehicle: saline with Tween-80.
[8] abbreviates: dose: 200.0 mg/kg/injection, schedule: Q04DX003 (ip), vehicle: saline with Tween-80.
The mark [9] stands for this setting: dose: 400.0 mg/kg/injection, schedule: Q04DX003 (ip), vehicle: saline with Tween-80.
Where [10] appears, read: dose: 100.0 mg/kg/injection, schedule: Q01DX001 (ip), vehicle: saline with Tween-80.
[11] abbreviates: dose: 200.0 mg/kg/injection, schedule: Q01DX001 (ip), vehicle: saline with Tween-80.
The mark [12] stands for this setting: dose: 400.0 mg/kg/injection, schedule: Q01DX001 (ip), vehicle: saline with Tween-80.
The mark [13] stands for this setting: dose: 12.5 mg/kg/injection, schedule: Q01DX009 (ip), vehicle: saline with Tween-80.
The mark [14] stands for this setting: dose: 25.0 mg/kg/injection, schedule: Q01DX009 (ip), vehicle: saline with Tween-80.
[15] abbreviates: dose: 50.0 mg/kg/injection, schedule: Q01DX009 (ip), vehicle: saline with Tween-80.
Where [16] appears, read: dose: 50.0 mg/kg/injection, schedule: Q04DX002 (ip), vehicle: saline with Tween-80.
The mark [17] stands for this setting: dose: 100.0 mg/kg/injection, schedule: Q04DX002 (ip), vehicle: saline with Tween-80.
[18] abbreviates: dose: 200.0 mg/kg/injection, schedule: Q04DX002 (ip), vehicle: saline with Tween-80.
Where [19] appears, read: dose: 100.0 mg/kg/injection, schedule: Q04DX003 (ip), vehicle: saline.
The mark [20] stands for this setting: dose: 200.0 mg/kg/injection, schedule: Q04DX003 (ip), vehicle: saline.
Where [21] appears, read: dose: 400.0 mg/kg/injection, schedule: Q04DX003 (ip), vehicle: saline.

With `COc1ccc(C(=C(CC(=O)O)C(=O)O)c2ccc(OC)cc2)cc1`, the T/C was 98 % of control under setting [1], 98 % of control under setting [2] and 101 % of control under setting [3].
For `COC(=O)c1ccc(-c2ccccc2)cc1`, the T/C is, setting by setting: (dose: 25.0 mg/kg/injection, schedule: Q01DX009 (ip), vehicle: Klucel (hydroxypropylcellulose) (HPC)) 96 % of control; (dose: 50.0 mg/kg/injection, schedule: Q01DX009 (ip), vehicle: Klucel (hydroxypropylcellulose) (HPC)) 102 % of control; (dose: 100.0 mg/kg/injection, schedule: Q01DX009 (ip), vehicle: Klucel (hydroxypropylcellulose) (HPC)) 103 % of control; (dose: 200.0 mg/kg/injection, schedule: Q01DX009 (ip), vehicle: Klucel (hydroxypropylcellulose) (HPC)) 105 % of control; (dose: 400.0 mg/kg/injection, schedule: Q01DX009 (ip), vehicle: Klucel (hydroxypropylcellulose) (HPC)) 102 % of control.
As for `CCC(=O)OCC[N+](C)(C)C`, the T/C was 100 % of control under setting [1], 96 % of control under setting [2] and 96 % of control under setting [3].
`CC(C)(C)ONC(=O)c1ccccc1Sc1ccccc1`: the T/C is 101 % of control under setting [4], 98 % of control under setting [5] and 97 % of control under setting [6].
For `Nc1ccc2ccccc2c1-c1c(N)ccc2ccccc12`, the T/C (dose: 18.7 mg/kg/injection, schedule: Q04DX002 (ip), vehicle: saline with Tween-80) was 91 % of control; the T/C (dose: 37.5 mg/kg/injection, schedule: Q04DX002 (ip), vehicle: saline with Tween-80) was 91 % of control; the T/C (dose: 75.0 mg/kg/injection, schedule: Q04DX002 (ip), vehicle: saline with Tween-80) was 102 % of control.
As for `O=C(CCCl)c1ccc2c(c1)OCO2`, the T/C reads like this: under setting [1], 104 % of control; under setting [2], 96 % of control.
`CC12CCC(C(=O)C1=O)C2(C)C` (centres undefined): the T/C runs as follows: under setting [7], 102 % of control; under setting [8], 94 % of control; under setting [9], 102 % of control.
Consider `Nc1ccc(NC(=O)COc2cccc(Cl)c2)cc1`, for which the T/C runs as follows: under setting [10], 90 % of control; under setting [11], 90 % of control; under setting [12], 95 % of control.
Consider `C1=CC2CC3(OCCO3)C2C1` (centres undefined), for which the T/C was 98 % of control under setting [4] and 98 % of control under setting [5].
On to `Cc1ccc(N=Nc2c(N)nc(N)nc2N)cc1C`, for which the T/C was 96 % of control under setting [7], 102 % of control under setting [8] and 108 % of control under setting [9].
For the molecule `Nc1nc(Cl)nc(Cl)n1`, the T/C is 102 % of control (dose: 12.5 mg/kg/injection, schedule: Q01DX001 (ip), vehicle: saline with Tween-80); 105 % of control (dose: 25.0 mg/kg/injection, schedule: Q01DX001 (ip), vehicle: saline with Tween-80); 100 % of control (dose: 50.0 mg/kg/injection, schedule: Q01DX001 (ip), vehicle: saline with Tween-80).
For `O=S(=O)(Cl)OC1C2COC(O2)C(OS(=O)(=O)Cl)C1OS(=O)(=O)Cl` (centres undefined), the T/C runs as follows: under setting [13], 108 % of control; under setting [14], 103 % of control; under setting [15], 102 % of control.
With `Nc1ccc2cc3ccccc3cc2c1`, the T/C is 104 % of control under setting [13]; 104 % of control under setting [14]; 95 % of control under setting [15]; 109 % of control under setting [7]; 111 % of control under setting [8]; 94 % of control under setting [9].
For the molecule `Nc1nc(N)c2nc(CSc3ccc(C(=O)NC(CCC(=O)O)C(=O)O)cc3)ccc2n1` (centres undefined), the T/C was 121 % of control (dose: 0.5 mg/kg/injection, schedule: Q01DX005 (ip), vehicle: sodium bicarbonate) and 154 % of control (dose: 2.0 mg/kg/injection, schedule: Q01DX005 (ip), vehicle: sodium bicarbonate).
Regarding `CC(C)COC(=N)c1ccccc1C1(O)CCCCC1`, the T/C is, setting by setting: under setting [16], 91 % of control; under setting [17], 88 % of control; under setting [7], 98 % of control; under setting [18], 100 % of control; under setting [8], 92 % of control.
`NC(CCc1ccc2c(c1)OCO2)C(=O)O` (centres undefined): the T/C is 97 % of control under setting [10], 100 % of control under setting [11] and 90 % of control under setting [12].
As to `CC(=O)OCC(OC(C)=O)C(OC(C)=O)C(OC(C)=O)C(S)S` (centres undefined), the T/C under setting [7] is 103 % of control, the T/C under setting [8] is 109 % of control and the T/C under setting [9] is 101 % of control.
On to `CCCC/C=C/C(C)O` (centres undefined), for which the T/C reads like this: under setting [15], 100 % of control; under setting [4], 100 % of control; under setting [7], 98 % of control; under setting [5], 95 % of control; under setting [8], 103 % of control; under setting [9], 103 % of control.
As for `O=C1CC(NCCO)C(=O)NN1` (centres undefined), the T/C reads like this: under setting [19], 101 % of control; under setting [20], 101 % of control; under setting [21], 104 % of control.
Consider `CC(C)c1cc2c(cc1O)C1(C)CCCC(C)(C(=O)O)C1CC2` (centres undefined), for which the T/C by setting is: under setting [4], 98 % of control; under setting [7], 95 % of control; under setting [5], 102 % of control; under setting [8], 96 % of control; under setting [6], 101 % of control; under setting [9], 94 % of control.
Turning to `CC(C)CCC(=O)c1ccccc1`, the T/C was 87 % of control under setting [16], 97 % of control under setting [17] and 91 % of control under setting [18].
On to `[Cl][Pt+2][Cl].[NH-]c1ccccc1[NH-]`, for which the T/C was 120 % of control (dose: 1.25 mg/kg/injection, schedule: Q01DX009 (ip), vehicle: saline with Tween-80) and 100 % of control (dose: 10.0 mg/kg/injection, schedule: Q01DX009 (ip), vehicle: saline with Tween-80).
Turning to `CN=S(=O)(OCCCCCOS(=O)(=NC)c1ccc(C)cc1)c1ccc(C)cc1` (centres undefined), the T/C runs as follows: (dose: 0.39 mg/kg/injection, schedule: Q01DX009 (ip), vehicle: saline with Tween-80) 97 % of control; (dose: 0.78 mg/kg/injection, schedule: Q01DX009 (ip), vehicle: saline with Tween-80) 103 % of control; (dose: 1.56 mg/kg/injection, schedule: Q01DX009 (ip), vehicle: saline with Tween-80) 97 % of control; (dose: 3.12 mg/kg/injection, schedule: Q01DX009 (ip), vehicle: saline with Tween-80) 105 % of control; (dose: 6.25 mg/kg/injection, schedule: Q01DX009 (ip), vehicle: saline with Tween-80) 95 % of control and 100 % of control; under setting [13], 97 % of control and 101 % of control. Moreover, the T/C runs as follows: under setting [14], 103 % of control; under setting [15], 97 % of control; under setting [4], 101 % of control; under setting [5], 100 % of control.
Take `CCC12OC3(CC)C4C(=O)OC1C1(CC)OC4(CC)C3C(=O)OC21`: the T/C runs as follows: under setting [1], 103 % of control; under setting [19], 102 % of control; under setting [2], 102 % of control; under setting [20], 100 % of control; under setting [3], 96 % of control; under setting [21], 94 % of control.
In the case of `CC1=NN(c2ccccc2)C(=O)CC1`, the T/C is 101 % of control under setting [7], 101 % of control under setting [8] and 103 % of control under setting [9].
